Assay results published in US5428053A, “1-aminoacetamidopyrroles and 1-amino acetamido-2-(substituted) pyrroles and related compounds” (priority 1993, dated 1995).
Structures can show the parent of a compound that is named as a salt. Where two headings read alike, the source gives them in different places.

Columns and labels:
[1] = Enhancement of step-down passive avoidance in rats; format: in vivo, rat (male Sprague Dawley); details: ip, 30 min prior, 24 hrs after acquisition
Method: In this assay, rats step off a wooden platform and subsequently receive a low-level foot shock. After 24 hours, the rats are observed for their ability to acquire and remember a passive avoidance behavior, that is, to stay on the platform. Male Sprague Dawley rats (Charles River) weighing 275-325 g were used in the passive avoidance procedure. Following a 11/2 week acclimation to the vivarium (5 rats per cage) where food and water were available ad libitum, rats were transported to the laboratory on day 1 of testing and acclimated to the experimental area and the investigator. Rats were labeled (tails marked) and handled by the investigator, then gently placed on a wooden platform (14×10.5×3.5 cm) in the experimental chamber (30.5×25×27 cm.) The chamber is equipped with a single house light and white noise generator to mask extraneous sounds. Once the animal stepped off the platform (all 4 paws touching the grid floor where grids are equally spaced every 2 cm), it was picked up by the base of the tail and returned to the home cage and then to the vivarium. On day 2, rats were returned to the laboratory and again acclimated to the experimental area for 30 min. Rats were intraperitoneally administered vehicle or compounds 30 min. prior to testing in a dosage volume of 1 ml/kg. Then the rats were gently placed on the wooden platform and their latency (in sec.) to step-down was recorded. When all four paws touched the grid, a low level 0.28 mA electric shock was delivered for 3 sec. by means of a Coulbourn Instruments grid floor shocker. Rats were immediately removed from the experimental chamber to their home cage when the shock ceased. […] Fifteen minutes later, this procedure was repeated. Rats were then returned to the vivarium. […] The latencies of each drug group on day 3 (24 hrs. following acquisition) was compared to the latencies of the vehicle control group by the non-parametric Mann-Whitney U test.

[2] = molecular target: T1, glycine binding site associated with the N-methyl-D-aspartate (NMDA) receptor complex (Rattus norvegicus, UniProt P35439); assay: biochemical; parameters: species or system rat (male Wistar, cortex)
T1 construct: Cortices of male Wistar rats are dissected over ice; from tissue; host or cells: cerebral cortex of male Wistar rats, Triton X-100 treated washed membranes
Method: This procedure is a modification of the method described by Monahan et al.^1
1. Buffer A: 0.5M Tris maleate, pH 7.4 59.3 g Tris maleate bring to 0.5 l Adjust pH to 7.4 with 0.5M Tris base
2. Buffer B: 50 mM Tris maleate, pH 7.4 Dilute Buffer A 1:10 with distilled water, adjust pH with 50 mM Tris maleate (acid) or 50 mM Tris base.
3. […] Aliquots of 20 μl to the assay tube will give a final concentration of 10^-3 M.
4. […] Aliquots of 50 μl are added to yield a final assay concentration of 10 nM.
6. Triton-X 100, 10% (v/v). A stock solution of Triton-X 100, 10% can be prepared and stored in the refrigerator. Dilute 1.0 ml of Triton-X 100 to 10.0 ml with distilled water. On the day of the assay, the tissue homogenate (1:15 dilution) is preincubated with an aliquot of the 10% solution to give a final concentration of 0.04% (v/v).
Cortices of male Wistar rats are dissected over ice and homogenized in ice-cold 0.32M sucrose (1:15 w/v) for 30 seconds with a Tissumizer setting at 70. Three cortices are pooled for one preparation. The homogenate is centrifuged at 1,000 g for 10 minutes. The supernatant is centrifuged at 20,000 g for 20 minutes. Resuspend the pellet in 15 volumes of ice-cold distilled water (Tissumizer setting 70, 15 sec) and spin at 7,600 g for 20 minutes. Save the supernatant, swirl off the upper buffy layer of the pellet and add to the supernatant. Centrifuge the supernatant at 48,000 g for 20 minutes. Resuspend the pellet with 15 volumes of cold distilled water and centrifuge. Discard the supernatant and store the pellet at -70° C.
On the day of the assay, resuspend the pellet in 15 volumes ice-cold 50 mM Tris maleate, pH 7.4. Preincubate the homogenate with Triton-X in a final concentration of 0.04% (v/v) for 30 minutes at 37° C. with agitation. Centrifuge the suspension at 48,000 g for 20 minutes. Wash the pellet an additional 3 times by resuspension with cold buffer and centrifugation. The final pellet is resuspended in a volume 25 times the original net weight.
1. Prepare assay tubes in triplicate.
50 μl Buffer A, 0.5M Tris maleate, pH 7.4
or appropriate concentration of inhibitor
500 μl Tissue homogenate
2. Following the addition of the tissue, the tubes are incubated for 20 minutes in an ice-bath at 0°-4° C. Terminate the binding by centrifugation for 20 minutes. Return the tubes to ice. Aspirate and discard the supernatant. Carefully rinse the pellet twice with 1 ml ice-cold buffer, avoiding disruption of the pellet. Transfer the pellet to scintillation vials by vortexing the pellet with 2 ml of scintillation fluid, rinse the tubes twice with 2 ml and add an additional 4 ml of scintillation fluid.
3. […] IC50 values for the competing compound are calculated by log-probit analysis of the data.

[3] = molecular target: T2, NMDA associated strychnine-insensitive glycine modulatory site (Rattus norvegicus, UniProt P35439); assay: biochemical; parameters: species or system rat (male Sprague Dawley, cortical tissue); details: for EC50: 2.5 nM [3H]TCP, L-glutamic acid 10^-7 M, read-out: ENHANCEMENT OF [3H]TCP BINDING EC50
T2 construct: cortical tissue obtained from male Sprague Dawley rats; from tissue; host or cells: cortical tissue of male Sprague Dawley rats, crude synaptosomal homogenate, lysed and washed

[4] = T-maze reinforced alternation task in rats (scopolamine-induced deficit); format: in vivo, rat (male Wistar); details: i.p.
Method: Male Wistar rats (Charles River) weighing 450-700 g were used in the T-maze procedure. Rats were housed (3 rats per cage) under standard laboratory conditions in the vivarium where food and water were available ad libitum. During training and testing, animals were transported to the dimly lit test room and acclimated for 30 min. The Lafayette Instruments T-maze consisted of a start box (30×20 cm), an alley way to the choice point (30×20 cm), a choice point area (25×25 cm), and two goal areas (30×20 cm) with a shock grid (grids every 11/2 cm) serving as the floor of the maze. Each session in the maze was controlled by a microprocessor.
Initially, animals were trained to greater than 70% choice accuracy in the maze for five consecutive days each week over a two week period. Following a 10 min. habituation to the maze, training commenced. All reinforced alternation sessions consisted of ten pseudo randomly paired trials. The first trial of each pair was the forced trial where the animal was forced to go to either the left or right goal box, since only one goal box door was open. The second trial was the choice trial where both goal box doors were open and the correct response was to enter the opposite goal to that entered on the previous forced run trial.
Each trial began when the rat was placed in the start box and allowed 15 sec. to enter the appropriate goal box. […] Following a 30 sec. intertrial interval (ITI), the next trial commenced. If during the choice trial, the rat entered the incorrect goal box (same goal entered during the forced trial), the guillotine door was closed and the rat received 5 electric shocks during the first 15 sec. of the 30 sec. ITI. All choices and latencies during the 10 paired trials were recorded by the computer controlled printer.
Animals which met criteria during training ([…]) were considered trained colony animals and were tested every other week. Testing was conducted over 3 consecutive days. Control sessions for baseline responding were conducted on days 1 and 2 so that the mean percentage of correct choices for each animal to qualify for drug testing was set at ≥70% correct choices.
The next time these animals were tested, they were administered pharmacological agents i.p. (at appropriate pretreatment times) in combination with scopolamine to measure effectiveness in reversing scopolamine-induced deficits in choice accuracy.
For statistical analysis, the means of each treatment group (drug+scopolamine) were compared to the mean of both the scopolamine alone group and the control group by the Dunnett's test.

[5] = system: NMDA receptor; assay: Stimulation of [3H]TCP binding by NMDA in extensively washed rat cortical membranes; details: glycine 1 μM added to NMDA
[6] = read-out: % OF MAXIMAL GLYCINE RESPONSE
[7] = read-out: % OF MAXIMAL GLYCINE RESPONSE, concentration 10 μM

| Compound | % Change from Control (median latency to step-down) ([1]; 10 mg/kg) | % Change from Control (median latency to step-down) ([1]; 20 mg/kg) | IC50 [2] [µM] | EC50 [3] [µM] | further results |
| --- | --- | --- | --- | --- | --- |
| Cl.NCC(=O)Nn1cccc1 [2-Amino-N-1H-pyrrol-1-ylacetamide Hydrochloride] | +281% | +625% | 14.8 | 92 | % Change from Control (median latency to step-down) ([1]; 80 mg/kg): +512%; Emax at 100 µM [3, 6]: 65% |
| Cl.NCC(=O)Nn1cccc1Cl [2-Amino-N-(2-chloro-1H-pyrrol-1-yl)acetamide Hydrochloride] | +158% | +25% | – | – | % Change from Control (median latency to step-down) ([1]; 40 mg/kg): +133% |
| NCC(=O)Nn1cccc1C(=O)c1cccs1 [2-Amino-N-[2-(2-thienylcarbonyl)-1H-pyrrol-1-yl]acetamide Hydrochloride] | – | – | 6 | 0.38 | Emax at 10 µM [3, 6]: 78% |
| NCC(=O)Nn1cccc1C(=O)c1ccccc1Cl [2-amino-N-[2-(2-chloro-benzoyl)-1H-pyrrol-1-yl]-acetamide hydrochloride] | – | – | 22.5 | 3 | Emax at 10 µM [3, 6]: 56% |
| NCC(=O)Nn1cccc1C(=O)c1ccccc1F [2-amino-N-[2-(2-fluorobenzoyl)-1H-pyrrol-1-yl]acetamide hydrobromide hemihydrate] | +471% | +836% | 11.2 | 3.1 | Mean % of Correct Choice ([4]; with scopolamine, 1/20 mg/kg (scopolamine/drug)): 64%; Emax at 10 µM [3, 7]: 77% |
| COc1ccccc1C(=O)c1cccn1NC(=O)CN.Cl [2-amino-N-[2-(2-methoxy-benzoyl)-1H-pyrrol-1-yl]-acetamide hydrochloride] | +37% | – | – | – | % Change from Control (median latency to step-down) ([1]; 1.25 mg/kg): +237%; % Change from Control (median latency to step-down) ([1]; 5 mg/kg): +80% |
| NCC(=O)Nn1cccc1C(=O)c1ccccc1C(F)(F)F [2-amino-N-[2-(2-trifluoro-methyl)benzoyl)-1H-pyrrol-1-yl]acetamide hydrobromide] | +77% | +122% | – | – | % Change from Control (median latency to step-down) ([1]; 5 mg/kg): +900%; % Change from Control (median latency to step-down) ([1]; 40 mg/kg): +33% |
| NCC(=O)Nn1cccc1C(=O)c1cccc(F)c1.O=C(O)/C=C/C(=O)O [2-amino-N-[2-(3-fluorobenzoyl)-1H-pyrrol-1-yl]acetamide fumarate] | +343% | +257% | 4.8 | 0.6 | % Change from Control (median latency to step-down) ([1]; 5 mg/kg): +457%; Emax at 10 µM [3, 7]: 76% |
| COc1ccc(C(=O)c2cccn2NC(=O)CN)cc1 [2-amino-N-[2-(4-methoxybenzoyl)-1H-pyrrol-1-yl]acetamide] | – | – | 6.6 | 2 | Emax at 100 µM ([3]; read-out: % OF MAXIMAL GLYCINE RESPONSE, concentration 100 μM): 89% |
| NCC(=O)Nn1c(Cl)ccc1C(=O)c1ccccc1F [2-amino-N-[5-chloro-2-(2-fluorobenzoyl)-1H-pyrrol-1-yl]acetamide hydrobromide] | – | – | 6 | 1.7 | Emax at 30 µM ([3]; read-out: % OF MAXIMAL GLYCINE RESPONSE, concentration 30 μM): 65% |
| N[C@@H]1CONC1=O [D-cycloserine] | – | – | – | – | % Change from Control (median latency to step-down) ([1]; 5 mg/kg): +120%; Mean % of Correct Choice ([4]; with scopolamine, 1/3 mg/kg (scopolamine/drug)): 59%; Mean % of Correct Choice ([4]; with scopolamine, 1/10 mg/kg (scopolamine/drug)): 61% |
| CC(=O)c1cccn1NC(=O)CN [N-(2-Acetyl-1H-pyrrol-1-yl)-2-aminoacetamide Hydrochloride] | – | – | 22.5 | 1.3 | Emax at 10 µM [3, 6]: 71% |
| CN1[C@@H]2C[C@@H](OC(=O)[C@H](CO)c3ccccc3)C[C@H]1[C@@H]1O[C@@H]12 [Scopolamine] | – | – | – | – | choice accuracy (overall responding at chance levels) ([4]; scopolamine 1 mg/kg, 30 min pretreatment): 50%; Mean % of Correct Choice ([4]; scopolamine alone 1 mg/kg): 45% |
| NCC(=O)O [glycine] | – | – | – | – | potentiation of the maximal effect of NMDA on [3H]TCP binding (factor) [5]: 1.7 |
